What follows are compounds tested against CK2A1 (CK2α/β) (Homo sapiens, UniProt P68400) (assay: CK2 kinase assay, CK2A1 (CK2α/β)). Conditions: Table A; read-out: CK2A1 (CK2α/β) (IC50).
Format: biochemical

CK2A1 (CK2α/β), sequence (P68400 whole entry, species assumed): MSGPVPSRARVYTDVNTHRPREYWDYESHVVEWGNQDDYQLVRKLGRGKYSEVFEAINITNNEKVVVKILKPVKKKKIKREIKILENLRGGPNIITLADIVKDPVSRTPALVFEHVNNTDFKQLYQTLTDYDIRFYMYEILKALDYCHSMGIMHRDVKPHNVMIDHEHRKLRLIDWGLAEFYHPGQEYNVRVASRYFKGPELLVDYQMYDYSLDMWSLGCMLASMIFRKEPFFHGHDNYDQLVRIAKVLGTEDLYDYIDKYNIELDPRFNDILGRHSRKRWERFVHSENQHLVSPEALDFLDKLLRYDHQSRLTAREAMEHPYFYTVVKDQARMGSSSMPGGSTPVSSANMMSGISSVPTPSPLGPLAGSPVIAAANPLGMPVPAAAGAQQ
CK2A1 (CK2α/β), sequence (P67870 whole entry partner, species assumed): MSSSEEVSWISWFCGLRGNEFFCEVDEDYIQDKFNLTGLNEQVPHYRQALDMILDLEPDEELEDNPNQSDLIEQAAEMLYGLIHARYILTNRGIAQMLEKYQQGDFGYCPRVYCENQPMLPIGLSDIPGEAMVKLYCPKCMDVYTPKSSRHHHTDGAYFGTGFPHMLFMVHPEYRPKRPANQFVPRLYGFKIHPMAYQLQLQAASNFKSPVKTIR

In order of rising IC50:
1. CC(=O)c1cc(C#N)cc(Nc2nc(NC3CC3)c3ncc(C#N)n3n2)c1Cl [Example 675, 2-((3-acetyl-2-chloro-5-cyanophenyl)amino)-4-(cyclopropylamino)imidazo[2,1-f][1,2,4]triazine-7-carbonitrile]  0.24 nM
2. CCNc1nc(Nc2ccc3c(c2)c(C#N)cn3C2CCN(C3COCC3O)CC2)nn2c(C#N)cnc12 (racemic) [Example 825, (+/−)-2-((3-cyano-1-(1-(4-hydroxytetrahydrofuran-3-yl)piperidin-4-yl)-1H-indol-5-yl)amino)-4-(ethylamino)imidazo[2,1-f][1,2,4]triazine-7-carbonitrile]  0.3 nM
3. CC(O)C(=O)N1CCN(c2cc(C#N)cc(Nc3nc(NC4CC4)c4ncc(C#N)n4n3)c2Cl)CC1 (racemic) [Example 80, (+/−) 2-((2-chloro-5-cyano-3-(4-lactoyl-1-piperazinyl)phenyl)amino)-4-(cyclopropylamino) imidazo[2,1-f][1,2,4] triazine-7-carbonitrile]  0.47 nM
4. CCNc1nc(Nc2cc(C#N)cc(N3CC[C@@H]4[C@@H](C3)OC(=O)N4C3COC3)c2Cl)nn2c(C#N)cnc12 (racemic) [Example 838, (+/−)-2-((2-chloro-5-cyano-3-((3aR,7aR)-1-(oxetan-3-yl)-2-oxohexahydrooxazolo[5,4-c]pyridin-5(2H)-yl)phenyl)amino)-4-(ethylamino)imidazo[2,1-f][1,2,4]triazine-7-carbonitrile]  0.54 nM
5. COC1CCN(C2CN(c3cc(C#N)cc(Nc4nc(NC5CC5)c5ncc(C#N)n5n4)c3Cl)C2)CC1 [Example 164]  0.57 nM
6. N#Cc1cc(Nc2nc(NC3CC3)c3ncc(C#N)n3n2)c(Cl)c(N2CCN3C(CCS3(=O)=O)C2)c1 (racemic) [Example 788, (+/−)-2-((2-chloro-5-cyano-3-(1,1-dioxidotetrahydro-2H-isothiazolo[2,3-a]pyrazin-5 (3H)-yl)phenyl)amino)-4-(cyclopropylamino)imidazo[2,1-f][1,2,4]triazine-7-carbonitrile]  0.62 nM
7. CCNc1nc(Nc2cc(C#N)cc(NCCO)c2Cl)nn2c(C#N)cnc12 [Example 630, 2-((2-chloro-5-cyano-3-((2-hydroxyethyl)amino)phenyl)amino)-4-(ethylamino)imidazo[2,1-f][1,2,4]triazine-7-carbonitrile]  0.68 nM
8. CC1(O)CN(C2CN(c3cc(C#N)cc(Nc4nc(NC5CC5)c5ncc(C#N)n5n4)c3Cl)C2)C1 [Example 168, 2-((2-chloro-5-cyano-3-(3-hydroxy-3-methyl-1,3′-biazetidin-1′-yl)phenyl)amino)-4-(cyclopropylamino)imidazo [2,1-f][1,2,4]triazine-7-carbonitrile]  0.68 nM
9. COCCN1CCC(N2CCN(c3cc(C#N)cc(Nc4nc(NC5CC5)c5ncc(C#N)n5n4)c3Cl)CC2)CC1 [Example 63, 2-((2-chloro-5-cyano-3-(4-(1-(2-methoxyethyl)-4-piperidinyl)-1-piperazinyl)phenyl)amino)-4-(cyclopropylamino) imidazo[2,1-f][1,2,4] triazine-7-carbonitrile]  0.7 nM
10. CCNc1nc(Nc2ccc3c(c2)c(C#N)cn3C2CCN(C3CN(C(=O)OC(C)(C)C)C3)CC2)nn2c(C#N)cnc12 [Example 831, tert-butyl 3-(4-(3-cyano-5-((7-cyano-4-(ethylamino)imidazo[2,1-f][1,2,4]triazin-2-yl)amino)-1H-indol-1-yl)piperidin-1-yl)azetidine-1-carboxylate]  0.71 nM
11. COCC(C)N1CCN(c2cc(C#N)cc(Nc3nc(NC4CC4)c4ncc(C#N)n4n3)c2Cl)CC1 (racemic) [Example 64, (+/−) 2-((2-chloro-5-cyano-3-(4-(2-methoxy-1-methylethyl)-1-piperazinyl)phenyl)amino)-4-(cyclopropylamino) imidazo[2,1-f][1,2,4] triazine-7-carbonilrile]  0.71 nM
12. CC(C)(O)CN1CC(N2CCC(c3cc(C#N)cc(Nc4nc(NC5CC5)c5ncc(C#N)n5n4)c3Cl)CC2)C1 [Example 324, 2-((2-chloro-5-cyano-3-(1-(1-(2-hydroxy-2-methylpropyl)-3-azetidinyl)-4-piperidinyl)phenyl)amino)-4-(cyclopropylamino)imidazo [2,1-f][1,2,4]triazine-7-carbonitrile]  0.78 nM
13. N#Cc1cc(Nc2nc(NC3CC3)c3ncc(C#N)n3n2)c(Cl)c(C2CCN(C3CCC3=O)CC2)c1 (stereo not drawn) [Example 644, 2-((2-chloro-5-cyano-3-(1-(2-oxocyclobutyl)piperidin-4-yl)phenyl)amino)-4-(cyclopropylamino)imidazo[2,1-f][1,2,4]triazine-7-carbonitrile]  0.85 nM
14. CN1CCC(O)(c2cc(C#N)cc(Nc3nc(NC4CC4)c4ncc(C#N)n4n3)c2Cl)CC1 [Example 649, 2-((2-chloro-5-cyano-3-(4-hydroxy-1-methylpiperidin-4-yl)phenyl)amino)-4-(cyclopropylamino)imidazo[2,1-f][1,2,4]triazine-7-carbonitrile]  1.01 nM
15. CC(=O)N1CC(N2CCC(O)(c3cc(C#N)cc(Nc4nc(NC5CC5)c5ncc(C#N)n5n4)c3Cl)CC2)C1 [Example 650, 2-((3-(1-(1-acetylazetidin-3-yl)-4-hydroxypiperidin-4-yl)-2-chloro-5-cyanophenyl)amino)-4-(cyclopropylamino)imidazo[2,1-f][1,2,4]triazine-7-carbonitrile]  1.09 nM
16. CCNc1nc(Nc2cc(C#N)cc(N3CCN(C4(CCO)COC4)CC3)c2Cl)nn2c(C#N)cnc12 [Example 543, 2-((2-chloro-5-cyano-3-(4-(3-(2-hydroxyethyl)oxetan-3-yl)piperazin-1-yl)phenyl)amino)-4-(ethylamino)imidazo[2,1-f][1,2,4]triazine-7-carbonitrile]  1.1 nM
17. N#Cc1cc(Nc2nc(NC3CC3)c3ncc(C#N)n3n2)c(Cl)c(N2CCN3C[C@H](O)C[C@@H]3C2)c1 (racemic) [Example 435, (+/−)-2-((2-chloro-5-cyano-3-((7R,8aR)-7-hydroxyhexahydropyrrolo[1,2-a]pyrazin-2(1H)-yl)phenyl)amino)-4-(cyclopropylamino)imidazo[2,1-f][1,2,4]triazine-7-carbonitrile]  1.13 nM
18. CCNc1nc(Nc2cc(C#N)cc(C3CN(C4COC4)C3)c2Cl)nn2c(C#N)cnc12 [Example 359, 2-((2-chloro-5-cyano-3-(1-(oxetan-3-yl)azetidin-3-yl)phenyl)amino)-4-(ethylamino)imidazo[2,1-f][1,2,4]triazine-7-carbonitrile]  1.58 nM
19. CC(C)(C)C(=O)N1CCC(c2cc(C#N)cc(Nc3nc(NC4CC4)c4ncc(C#N)n4n3)c2Cl)CC1 [Example 234, 2-((2-chloro-5-cyano-3-(1-(2,2-dimethylpropanoyl)-4-piperidinyl)phenyl)amino)-4-(cyclopropylamino)imidazo[2,1-f][1,2,4]triazine-7-carbonitrile]  1.6 nM
20. CC(C)(O)CN[C@@H]1CCCN(c2cc(C#N)cc(Nc3nc(NC4CC4)c4ncc(C#N)n4n3)c2Cl)C1 [Example 43, 2-((2-chloro-5-cyano-3-((3R)-3-((2-hydroxy-2-methylpropyl)amino)-1-piperidinyl)phenyl)amino)-4-(cyclopropylamino)imidazo [2,1-f][1,2,4]triazine-7-carbonitrile]  1.82 nM
21. N#Cc1cc(Nc2nc(NC3CC3)c3ncc(C#N)n3n2)c(Cl)c([C@H]2CCC[C@@H](N3CC(F)C3)C2)c1 [Example 726, 2-({2-chloro-5-cyano-3-[(1S,3R)-3-(3-fluoroazetidin-1-yl)cyclohexyl]phenyl}amino)-4-(cyclopropylamino)imidazo [2,1-f][1,2,4]triazine-7-carbonitrile]  2.34 nM
22. N#Cc1cc(Nc2nc(NC3CC3)c3ncc(C#N)n3n2)c(Cl)c(N2CC[C@H]3NC(=O)CO[C@@H]3C2)c1 (racemic) [Example 310, (+/−)-2-((2-chloro-5-cyano-3-((4aR,8aR)-2-oxohexahydro-1H-pyrido[3,4-b][1,4]oxazin-6(7H)-yl)phenyl)amino)-4-(cyclopropylamino)imidazo[2,1-f][1,2,4]triazine-7-carbonitrile, 2HCl]  2.87 nM
23. COC(=O)N1CC2CN(c3cc(C#N)cc(Nc4nc(NC5CC5)c5ncc(C#N)n5n4)c3Cl)CC2C1 (stereo not drawn) [Example 462, methyl 5-(2-chloro-5-cyano-3-((7-cyano-4-(cyclopropylamino)imidazo[2,1-f][1,2,4]triazin-2-yl)amino)phenyl)hexahydro-pyrrolo[3,4-c]pyrrole-2(1H)-carboxylate]  3 nM
24. N#Cc1cc(Nc2nc(NC3CC3)c3ncc(C#N)n3n2)c(Cl)c(N2CCN(C3CN(S(=O)(=O)C4CC4)C3)CC2)c1 [Example 504, 2-[(2-chloro-5-cyano-3-{4-[1-(cyclopropanesulfonyl)azetidin-3-yl]piperazin-1-yl}phenyl)amino]-4-(cyclopropylamino)imidazo[2,1-f][1,2,4]triazine-7-carbonitrile]  4.07 nM
25. CCOCCC(=O)N1CC(N2CCN(c3cc(C#N)cc(Nc4nc(NC5CC5)c5ncc(C#N)n5n4)c3Cl)CC2)C1 [Example 511, 2-[(2-chloro-5-cyano-3-{4-[1-(3-ethoxypropanoyl)azetidin-3-yl]piperazin-1-yl}phenyl)amino]-4-(cyclopropylamino)imidazo[2,1-f][1,2,4]triazine-7-carbonitrile]  4.62 nM
26. N#Cc1cc(Nc2nc(NC3CC3)c3ncc(C#N)n3n2)c(Cl)c(N2CCC(NC3CS(=O)(=O)C3)CC2)c1 [Example 129, 2-((2-chloro-5-cyano-3-(4-((1,1-dioxido-3-thietanyl)amino)-1-piperidinyl)phenyl)amino)-4-(cyclopropylamino)imidazo [2,1-f][1,2,4]triazine-7-carbonitrile]  5.13 nM
27. N#Cc1cc(Nc2nc(NC3CC3)c3ncc(C#N)n3n2)c(Cl)c(N2CCN(C3CCS(=O)(=O)C3)CC2)c1 (stereo not drawn) [Example 582, 2-({2-chloro-5-cyano-3-[4-(1,1-dioxo-1λ^6-thiolan-3-yl)piperazin-1-yl]phenyl}amino)-4-(cyclopropylamino)imidazo [2,1-f][1,2,4]triazine-7-carbonitrile]  5.9 nM

Reference: US9273057B2 (Bristol-Myers Squibb Company, priority 2012, dated 2016)
